Experiments:
[1] = system: human umbilical vein endothelial cells (HUVEC); assay: CCK8 metabolic activity of printed thin slabs, HUVEC in GelMA; type: cell-based; conditions: 35% vs 0% IDX; 5% GelMA, 2 million/mL HUVEC; 7 days culture; n=6, p>0.1
Text: (§1) In order to verify IDX's biocompatibility with various biomaterials and cell types, we performed thin slab bioprinting using three commonly used formulas: human umbilical vein endothelial cells (HUVEC) in GelMA, human Schwann cells (HSC) in glycidyl methacrylate hyaluronic acid (GMHA), and C2C12 in alginate methacrylate (AlgMA). FIGS. 7A and 7B are plots of the refractive indices of these common bioinks at various biopolymer and IDX concentrations, respectively. Since the ideal IDX concentration range varies between 20% and 35%, we chose to compare 3D printed tissues in which 0% or 35% IDX was used. As will be apparent to those of skill in the art, other bioinks may be used including, but not limited to, multi-arm PEG (polyethylene glycol), Gel-NB (Gelatin-norbornene), Gel-SH (Gelatin-thiol), and combinations thereof, including HA-NB, HA-SH, etc. Furthermore, the sample cell types described herein are not intended to be limiting but were selected to evaluate the process's impact on viability of mammalian cells. Applications of the inventive approach go well beyond mammalian tissue/organ fabrication. […]
(§2) Cell viability in the printed thin slabs was quantified with Cell Counting Kit-8 (CCK-8, K1018, ApexBio). […] After incubation, 200 μL supernatant was collected from each sample and their OD at 450nm was measured with Tecan Infinite 200 pro.

[2] = system: human Schwann cells (HSC); assay: CCK8 metabolic activity of printed thin slabs, HSC in GMHA; type: cell-based; conditions: 35% vs 0% IDX; 2.5% GMHA, 0.5% GelMA, 10 million/mL HSC; 7 days culture; n=6, p>0.1
Text: as §1, §2

[3] = system: C2C12; assay: CCK8 metabolic activity of printed thin slabs, C2C12 in AlgMA; type: cell-based; conditions: 35% vs 0% IDX; 1% AlgMA, 0.25% GelMA, 10 million/mL C2C12; 7 days culture; n=6, p>0.1
Text: as §1, §2

[4] = system: HUVEC; assay: Live/Dead staining of printed HUVEC thin slabs; type: cell-based; conditions: HUVEC in GelMA thin slabs
Text: (§3) The bioink used in HUVEC viability experiment (FIGS. 3A, 3D) consists of 5% GelMA, 0.6% LAP, 2 million/mL HUVEC cells, 0% or 35% IDX, and PBS as solvent. The bioink used in HSC viability experiment (FIG. 3B) consists of 2.5% GMHA, 0.5% GelMA, 0.6% LAP, 10 million/mL HSC cells, 0% or 35% IDX, and PBS as solvent. The bioink used in C2C12 viability experiment (FIG. 3C) consists of 1% AlgMA, 0.25% GelMA, 0.6% LAP, 10 million/mL C2C12 cells, 0% or 35% IDX, and PBS as solvent. The bioink used in HUVEC RNAseq experiment (FIG. 3G) consists of 5% GelMA, 0.6% LAP, 10 million/mL HUVEC cells, 0% or 35% IDX, and PBS as solvent.
(§4) In addition, live/dead staining was also used to characterize cell viability. HUVEC in GelMA bioink is printed as thin slabs with either 0% or 35% IDX. […] Furthermore, the cytoskeleton of HUVECs was stained using phalloidin to visualize the cells' morphology.
The cell viability was also evaluated with Live/Dead staining. At designated time points, the slabs were washed with DPBS twice, incubated with 2 μM Calcein AM (C3099, Invitrogen) and 3 μM propidium iodide (P3566, Invitrogen) in the fresh culture media at their regular incubation condition for 30 min. After incubation, the slabs were washed with DPBS twice and imaged with Leica DMI6000B fluorescence microscope. The live cell percentage was counted using particle analysis tool in ImageJ.

[5] = system: HUVEC; assay: Phalloidin cytoskeleton staining of printed HUVEC slabs; type: cell-based, human; conditions: 0% vs 35% IDX, day 7
Text: as §4

[6] = system: HUVEC; assay: RNA-seq of HUVECs in 3D-printed GelMA hydrogel (DESeq2, GSEA); type: cell-based, human
Text: as §3
This is especially important for vasculature-on-a-chip studies, where the metabolism and immune-regulation of the endothelium is of interest. […] Here, RNA-sequencing (RNA-seq) was performed to comprehensively investigate the potential changes caused by IDX exposure in the HUVECs in 3D-printed GelMA hydrogel.
Differential expression was first investigated with DESEQ2. […] To further evaluate the biological impact that IDX brought to the bioprinted vasculature, Gene Set Enrichment Analysis (GSEA) using the Molecular Signature Database (MSigDB) was used. […] The heme metabolism is believed to be a result of the oxidative stress induced by the IDX, and the enrichment in the complement system is potentially related to inflammatory responses. These findings correlate well with the clinically observed adverse effects and previous toxicological studies of IDX.
HUVECs were 3D printed in 250 μm slabs using GelMA bioink with 0% or 35% IDX. After 7 days of culture, the RNAs from the 3D printed slabs are extracted with TRIzol reagent (15596018, Ambion) followed by purification using spin column method with Direct-zol RNA Microprep (R2060, Zymo Research). The RNA quality evaluation and sequencing was performed by Novogen Inc. The sequencing data was analyzed with FastQC, trimmed with Trimmomatic, aligned with HISAT2, annotated with StringTie. Differential gene expression was analyzed with DESeq2. Gene set enrichment analysis was performed with GSEA_4.2.3 (Broad Institute). Network analysis was performed with Cytoscape 3.9.1 using the EnrichmentMap application.

[7] = Refractive index measurement at 405 nm; type: physicochemical
Protocol: Tests verified that IDX can effectively tune the refractive index by measuring the refractive index of bioinks comprising 5% GelMA and various concentrations of IDX at the working wavelength of the bioprinter (405 nm). For refractive index measurement, mixtures of 5% GelMA with 0%, 20%, 25%, 30%, or 35% IDX, and PBS as solvent were prepared. […] The refractive indices of bioinks comprising 5% GelMA and 0% IDX, as well as the as-purchased IDX solution (OptiPrep™, Sigma-Aldrich) which contains 60% IDX, are also plotted for reference.
The refractive index of bioink can be measured using a simple refractometer with a 405 nm laser. […] The converging beam enters the prism-sample interface at different angles, and total internal reflection (TIR) happens at some of these angles. The diverging beam exits the prism, is collimated by a lens, and collected by a camera. […] In order to accurately relate the TIR boundary position on the captured image to the actual reflecting angle, water and isopropanol, whose refractive index and thus TIR critical angles are known, were used to calibrate this relation.

[8] = Scattering properties of cell-laden bioink (Monte-Carlo with particle swarm optimization); type: physicochemical
Protocol: The scattering effect of the material is usually characterized by scattering coefficient, anisotropy, and reduced scattering coefficient. To further verify that a proper concentration of IDX can effectively reduce the bioinks' scattering effect, bioinks comprising 5% GelMA, 40 million/mL 293T cells, and various IDX concentrations (0%, 20%, 25%, 30%, or 35%) were prepared. An approach that combined Monte-Carlo simulation and particle swarm optimization algorithm was used to determine the bioink's scattering properties at the working wavelength of the bioprinter (405 nm). […] The bioink without refractive index tuning has a scattering coefficient of 11.76 mm^−1, and a reduced scattering coefficient of 0.164 mm^−1. […] By carefully tuning the concentration of contrast agent, scattering can potentially be further reduced.
We used a well-developed 3D Monte-Carlo method combined with a particle swarm optimization algorithm (57) to numerically calculate the scattering properties of the cell-laden bioinks. The total transmittance and total reflectance at 405 nm of the 1 mm thick bioink containing 40 million/mL cells were measured using a UV-Vis-NIR spectroscope (Perkin Elmer, Lambda 1050) with integrating sphere. The angular intensity distribution of the scattered light at 405 nm was measured with a simple optical goniometer type setup. Given arbitrary optical properties, the total transmittance, total reflectance, and angular distribution can be calculated by the Monte-Carlo method. We then used a particle swarm optimization algorithm on MATLAB (MathWorks, Natick MA) to acquire the optical properties which best fit the measured total transmittance, total reflectance, and angular distribution. FIG. 2E provides sample line graphs showing that the simulated angular distribution of the scattered light well fits the measurement values. Next, we used the acquired scattering coefficient and anisotropy to simulate the spatial distribution of light inside the bioink with Monte-Carlo method. This spatial distribution is also the point spread function of scattering.

[9] = Brix refractometer measurement of 5% GelMA bioink with contrast agents; type: physicochemical; conditions: 5% GelMA bioink, 0, 20, 30, 40, 50% w/v contrast agent
Protocol: FIGS. 14A and 14B plot the results of measurement using a Brix refractometer of 5% GelMA bioink with various concentrations (0, 20, 30, 40, 50% w/v) of the contrast agents ioversol and iohexol, respectively. For comparison, a 100% (w/v) sample of each contrast agent was also measured. Since this method measures the number of dissolved solids in a liquid based on its specific gravity, the units are in Brix %. FIGS. 14C and 14D show the Brix % data converted to refractive index.

[10] = 35% vs 0% IDX, 7 days after bioprinting, |log2FoldChange|>0.5849, p<0.05
[11] = bioink 5% GelMA, 40 million/mL 293T cells, 30% IDX, 405 nm

| SMILES | effect on cells' metabolic activity (CCK8) compared to controls [1] | effect on cells' metabolic activity (CCK8) compared to controls [2] | effect on cells' metabolic activity (CCK8) compared to controls [3] | cell viability (live cell percentage) ([4]; 0% or 35% IDX, Day 1, Day 3, Day 7) | difference in cell viability between 0% and 35% IDX ([4]; n=4, p>0.1 for all pairs) | cell morphology / endothelialization [5] | genes downregulated [6, 10] | genes significantly upregulated [6, 10] | principal component analysis clustering of samples ([6]; 35% vs 0% IDX, n=3) | curated collection gene sets downregulated ([6]; response to IDX exposure) | curated collection gene sets upregulated ([6]; response to IDX exposure) | ontology collection gene sets downregulated ([6]; response to IDX exposure) | ontology collection gene sets upregulated ([6]; response to IDX exposure) | hallmark gene sets significantly enriched (GSEA) ([6]; samples printed with IDX bioink, FDR<25%, p<0.05) | refractive index of the bioink versus IDX concentration ([7]; 5% GelMA, IDX 20% to 35%, 405 nm) | refractive index ([7]; IDX solution) | reduction of scattering ([8]; 30% IDX vs bioink without refractive index tuning) | reduced scattering coefficient [8, 11] | scattering coefficient [8, 11] | tuning of bioink refractive index [9] |
| --- | --- | --- | --- | --- | --- | --- | --- | --- | --- | --- | --- | --- | --- | --- | --- | --- | --- | --- | --- | --- |
| CC(=O)N(CC(O)CN(C(C)=O)c1c(I)c(C(=O)NCC(O)CO)c(I)c(C(=O)NCC(O)CO)c1I)c1c(I)c(C(=O)NCC(O)CO)c(I)c(C(=O)NCC(O)CO)c1I (centres unmarked) [IDX, iodixanol] | no statistically significant effect | no statistically significant effect | no statistically significant effect | greater than 90% | No statistically significant difference | no qualitative differences observed | 569 genes | 587 genes | did not cluster into two groups | 11 gene sets | 3 gene sets | 1 gene set | 18 gene sets | xenobiotic metabolism, heme metabolism, and complement gene sets | linearly increases | greater than 1.4 | approximately 10 fold | 0.014 mm^−1 | 1.377 mm^−1 | – |
| O=C(NCC(O)CO)c1c(I)c(C(=O)NCC(O)CO)c(I)c(N(CCO)C(=O)CO)c1I (centres unmarked) [ioversol] | – | – | – | – | – | – | – | – | – | – | – | – | – | – | – | – | – | – | – | can effectively tune its refractive index |
